Measurements reported in PubChem BioAssay AID1963975 (Molecular Pharmacology Branch, DTP, NCI, 2024).

Tested on: 624824-186-R-J2-PDC multicell spheroids, viability
Experiment: Anticancer human tumor 624824-186-R-J2-PDC patient-derived colon adenocarcinoma cell line growth inhibition [PI3K]
Details: for IC50: curve of first compound; for viability, T/C: stronger effect = lower value
Summary of the method: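 High-throughput combination screen: PI3K inhibitors crossed with targeted small molecules on complex spheroids of tumor cells, HUVEC and MSCs at 37 degrees C, 5% CO2. Top concentration was at or near clinical Cmax (otherwise 10 microM), with half-log decrements.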

[1] = second compound 0.00316 µM, first compound 0.0316 µM
[2] = second compound 0.00316 µM, first compound 0.1 µM
[3] = second compound 0.00316 µM, first compound 0.316 µM
[4] = second compound 0.00316 µM, first compound 1 µM
[5] = second compound 0.00316 µM, first compound 3.16 µM
[6] = second compound 0.00316 µM, first compound 10 µM
[7] = second compound 0.01 µM, first compound 0.0316 µM
[8] = second compound 0.01 µM, first compound 0.1 µM
[9] = second compound 0.01 µM, first compound 0.316 µM
[10] = second compound 0.01 µM, first compound 1 µM
[11] = second compound 0.01 µM, first compound 3.16 µM
[12] = second compound 0.01 µM, first compound 10 µM
[13] = second compound 0.0316 µM, first compound 0.0316 µM
[14] = second compound 0.0316 µM, first compound 0.1 µM
[15] = second compound 0.0316 µM, first compound 0.316 µM
[16] = second compound 0.0316 µM, first compound 1 µM
[17] = second compound 0.0316 µM, first compound 3.16 µM
[18] = second compound 0.0316 µM, first compound 10 µM
[19] = second compound 0.1 µM, first compound 0.0316 µM
[20] = second compound 0.1 µM, first compound 0.1 µM
[21] = second compound 0.1 µM, first compound 0.316 µM
[22] = second compound 0.1 µM, first compound 1 µM
[23] = second compound 0.1 µM, first compound 3.16 µM
[24] = second compound 0.1 µM, first compound 10 µM
[25] = second compound 0.316 µM, first compound 0.0316 µM
[26] = second compound 0.316 µM, first compound 0.1 µM
[27] = second compound 0.316 µM, first compound 0.316 µM
[28] = second compound 0.316 µM, first compound 1 µM
[29] = second compound 0.316 µM, first compound 3.16 µM
[30] = second compound 0.316 µM, first compound 10 µM
[31] = second compound 1 µM, first compound 0.0316 µM
[32] = second compound 1 µM, first compound 0.1 µM
[33] = second compound 1 µM, first compound 0.316 µM
[34] = second compound 1 µM, first compound 1 µM
[35] = second compound 1 µM, first compound 3.16 µM
[36] = second compound 1 µM, first compound 10 µM
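Note: spheroids exposed to agents for 7 days before viability read.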
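Throughout, for viability, T/C: 100% = DMSO vehicle treated spheroids.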

In the case of Cn1ncc(Cl)c1-c1cc(C(=O)NC(CN)Cc2cccc(F)c2)sc1Cl (centres undefined) + CC(Nc1ccc2c(c1)OCCn1cc(N3C(=O)OCC3C(F)F)nc1-2)C(N)=O, the IC50 (second compound 0.00316 µM) is reported as > 10 µM, the IC50 (second compound 0.01 µM) is reported as > 10 µM and the IC50 (second compound 0.0316 µM) is reported as > 10 µM. The IC50 (second compound 0.1 µM) was > 10 µM, the IC50 (second compound 0.316 µM) was > 10 µM and the IC50 (second compound 1 µM) was > 10 µM. For the same compound, the viability, T/C [1] was 106%, the viability, T/C [2] was 97.5% and the viability, T/C [3] was 75.8%. The viability, T/C [4] was 87.1%, the viability, T/C [5] was 67.7% and the viability, T/C [6] was 78.8%. For the same compound, the viability, T/C [7] was 107%, the viability, T/C [8] was 78.8% and the viability, T/C [9] was 70.9%. The viability, T/C [10] was 78.8%, the viability, T/C [11] was 79.6% and the viability, T/C [12] was 50.4%. For the same compound, the viability, T/C [13] was 101%, the viability, T/C [14] was 71.9% and the viability, T/C [15] was 75.7%. It also gave a viability, T/C [16] of 85.9%, a viability, T/C [17] of 78.7% and a viability, T/C [18] of 58.8%. The viability, T/C [19] was 75%, the viability, T/C [20] was 100% and the viability, T/C [21] was 74.5%. For the same compound, the viability, T/C [22] was 81.8%, the viability, T/C [23] was 76.9% and the viability, T/C [24] was 53.1%. The viability, T/C [25] was 71.3%, the viability, T/C [26] was 81.5% and the viability, T/C [27] was 92.6%. It also gave a viability, T/C [28] of 85.1%, a viability, T/C [29] of 75.4% and a viability, T/C [30] of 57.3%. For the same compound, the viability, T/C [31] was 86.7%, the viability, T/C [32] was 77.8% and the viability, T/C [33] was 95.4%. It also gave a viability, T/C [34] of 76.7%, a viability, T/C [35] of 75.7% and a viability, T/C [36] of 59.3%.
Cn1nccc1Nc1nccc(-c2ccn(C(CO)c3ccc(Cl)c(F)c3)c(=O)c2)n1 (centres undefined) + CC(Nc1ccc2c(c1)OCCn1cc(N3C(=O)OCC3C(F)F)nc1-2)C(N)=O was tested, and the IC50 (second compound 0.00316 µM) was > 10 µM, the IC50 (second compound 0.01 µM) was > 10 µM and the IC50 (second compound 0.0316 µM) was > 10 µM. The IC50 (second compound 0.1 µM) was > 10 µM, the IC50 (second compound 0.316 µM) was > 10 µM and the IC50 (second compound 1 µM) was 1.33 µM. The viability, T/C [1] was 79.4%, the viability, T/C [2] was 78.9% and the viability, T/C [3] was 80.1%. For the same compound, the viability, T/C [4] was 84.7%, the viability, T/C [5] was 104% and the viability, T/C [6] was 99.5%. The viability, T/C [7] was 80.5%, the viability, T/C [8] was 73.6% and the viability, T/C [9] was 77.6%. For the same compound, the viability, T/C [10] was 90.5%, the viability, T/C [11] was 102% and the viability, T/C [12] was 116%. For the same compound, the viability, T/C [13] was 79%, the viability, T/C [14] was 71.8% and the viability, T/C [15] was 72%. It also gave a viability, T/C [16] of 91.6%, a viability, T/C [17] of 86.6% and a viability, T/C [18] of 93.2%. For the same compound, the viability, T/C [19] was 87.5%, the viability, T/C [20] was 61.4% and the viability, T/C [21] was 68.8%. The viability, T/C [22] was 95.6%, the viability, T/C [23] was 84.9% and the viability, T/C [24] was 59%. It also gave a viability, T/C [25] of 63%, a viability, T/C [26] of 63.5% and a viability, T/C [27] of 68.6%. The viability, T/C [28] was 73.7%, the viability, T/C [29] was 63.9% and the viability, T/C [30] was 40.4%. The viability, T/C [31] was 73.1%, the viability, T/C [32] was 86.4% and the viability, T/C [33] was 61%. For the same compound, the viability, T/C [34] was 52.9%, the viability, T/C [35] was 42.5% and the viability, T/C [36] was 29%.
